# Data reported in ChEMBL document CHEMBL1134976, “SB-656104-A: a novel 5-HT(7) receptor antagonist with improved in vivo properties” (Bioorg Med Chem Lett, 2002).
# What was measured:
# [1] = biological target: T1, 5-hydroxytryptamine receptor 7 (Homo sapiens, UniProt P34969); assay: Binding affinity for human cloned 5-hydroxytryptamine 7 receptor in HEK 293 using [3H]5-CT as a radioligand; format: cell-based, HEK293
# [2] = biological target: T2, Alpha-1B adrenergic receptor (Homo sapiens, UniProt P35368); assay: Binding affinity towards Alpha-1B adrenergic receptor
# T2 sequence (P35368 whole entry): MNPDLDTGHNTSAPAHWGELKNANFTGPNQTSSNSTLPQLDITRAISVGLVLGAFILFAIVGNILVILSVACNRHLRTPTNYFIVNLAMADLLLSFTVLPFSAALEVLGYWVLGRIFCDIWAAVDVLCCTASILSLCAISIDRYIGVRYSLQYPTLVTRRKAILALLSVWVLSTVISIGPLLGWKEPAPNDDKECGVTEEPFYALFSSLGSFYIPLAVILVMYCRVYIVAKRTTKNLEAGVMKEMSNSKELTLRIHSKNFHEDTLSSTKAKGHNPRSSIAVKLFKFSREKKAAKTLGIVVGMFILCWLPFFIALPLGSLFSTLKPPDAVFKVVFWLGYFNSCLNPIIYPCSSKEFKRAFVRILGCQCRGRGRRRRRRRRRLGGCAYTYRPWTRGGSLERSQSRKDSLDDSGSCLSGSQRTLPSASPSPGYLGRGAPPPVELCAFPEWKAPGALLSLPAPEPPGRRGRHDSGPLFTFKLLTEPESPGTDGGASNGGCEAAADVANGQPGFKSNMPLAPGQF
# [3] = Compound was tested for the lower blood clearance in rat; format: ADME, organism-based; settings: read-out: CLb
# [4] = Steady state brain :blood ratio was determined; format: ADME, organism-based; settings: rat, brain and blood
# [5] = system: Cavia porcellus; assay: Effective dose to antagonise 5-CT induced hypothermia in guinea pig at 1 hour after intraperitoneal administration; settings: ip
# [6] = Half life was determined; format: ADME, organism-based; settings: rat, in vivo
# [7] = biological target: 5-hydroxytryptamine receptor 1D (Homo sapiens, UniProt P28221); assay: Compound was tested for its binding affinity for human cloned 5-hydroxytryptamine 1D receptor in CHO using [3H]5-HT as a radioligand
# Chain of 5-hydroxytryptamine receptor 1D (P28221 whole entry): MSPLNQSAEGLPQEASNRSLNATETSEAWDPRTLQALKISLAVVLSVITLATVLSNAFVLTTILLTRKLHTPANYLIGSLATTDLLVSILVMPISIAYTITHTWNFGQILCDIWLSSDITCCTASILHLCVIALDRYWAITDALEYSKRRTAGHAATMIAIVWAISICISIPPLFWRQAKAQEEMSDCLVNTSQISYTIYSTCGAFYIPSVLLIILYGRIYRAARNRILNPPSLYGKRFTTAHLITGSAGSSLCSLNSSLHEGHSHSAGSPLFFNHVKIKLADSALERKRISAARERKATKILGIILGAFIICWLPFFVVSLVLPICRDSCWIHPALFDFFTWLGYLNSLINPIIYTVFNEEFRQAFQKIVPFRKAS
# [8] = biological target: T3, 5-hydroxytryptamine receptor 1A (Homo sapiens, UniProt P08908); assay: Compound was tested for its binding affinity for human cloned 5-hydroxytryptamine 1A receptor in HEK 293 using [3H]5-CT as a radioligand; format: cell-based, HEK293
# T3 sequence (P08908 whole entry): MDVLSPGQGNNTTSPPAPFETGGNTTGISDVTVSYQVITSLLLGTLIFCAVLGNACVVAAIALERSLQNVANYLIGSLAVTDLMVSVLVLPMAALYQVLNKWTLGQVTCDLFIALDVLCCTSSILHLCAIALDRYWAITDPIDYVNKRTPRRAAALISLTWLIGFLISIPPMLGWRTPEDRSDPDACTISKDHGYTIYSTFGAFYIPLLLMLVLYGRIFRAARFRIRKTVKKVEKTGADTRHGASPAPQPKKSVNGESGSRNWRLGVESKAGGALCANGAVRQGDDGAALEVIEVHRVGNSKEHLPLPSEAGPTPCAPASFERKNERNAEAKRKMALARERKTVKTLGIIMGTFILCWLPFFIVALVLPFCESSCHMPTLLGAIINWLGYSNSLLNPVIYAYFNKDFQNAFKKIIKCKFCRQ
# [9] = biological target: T1, 5-hydroxytryptamine receptor 7; assay: Compound was tested for its binding affinity in 5-hydroxytryptamine 7 receptor (using human cloned receptors in HEK 293 and [3H]5-CT as a radioligand ); format: cell-based, HEK293
# [10] = biological target: 5-hydroxytryptamine receptor 4 (Homo sapiens, UniProt Q13639); assay: Compound was tested for its binding affinity for 5-hydroxytryptamine 4 receptor
# Chain of 5-hydroxytryptamine receptor 4 (Q13639 whole entry): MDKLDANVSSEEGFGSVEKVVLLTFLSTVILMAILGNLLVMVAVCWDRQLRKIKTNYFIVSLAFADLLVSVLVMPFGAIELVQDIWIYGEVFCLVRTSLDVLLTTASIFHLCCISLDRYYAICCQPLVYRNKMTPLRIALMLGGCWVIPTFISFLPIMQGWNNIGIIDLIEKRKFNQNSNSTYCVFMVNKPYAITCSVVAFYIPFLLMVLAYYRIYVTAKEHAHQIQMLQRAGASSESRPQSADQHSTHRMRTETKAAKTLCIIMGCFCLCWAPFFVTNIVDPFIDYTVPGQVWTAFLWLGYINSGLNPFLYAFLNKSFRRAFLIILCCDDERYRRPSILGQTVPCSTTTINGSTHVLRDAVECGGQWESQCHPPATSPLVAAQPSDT
# [11] = biological target: 5-hydroxytryptamine receptor 2B (Homo sapiens, UniProt P41595); assay: Compound was tested for its binding affinity for human cloned 5-hydroxytryptamine 2B receptor in HEK 293 using [3H]ketanserin as a radioligand; format: cell-based, HEK293
# Chain of 5-hydroxytryptamine receptor 2B (P41595 whole entry): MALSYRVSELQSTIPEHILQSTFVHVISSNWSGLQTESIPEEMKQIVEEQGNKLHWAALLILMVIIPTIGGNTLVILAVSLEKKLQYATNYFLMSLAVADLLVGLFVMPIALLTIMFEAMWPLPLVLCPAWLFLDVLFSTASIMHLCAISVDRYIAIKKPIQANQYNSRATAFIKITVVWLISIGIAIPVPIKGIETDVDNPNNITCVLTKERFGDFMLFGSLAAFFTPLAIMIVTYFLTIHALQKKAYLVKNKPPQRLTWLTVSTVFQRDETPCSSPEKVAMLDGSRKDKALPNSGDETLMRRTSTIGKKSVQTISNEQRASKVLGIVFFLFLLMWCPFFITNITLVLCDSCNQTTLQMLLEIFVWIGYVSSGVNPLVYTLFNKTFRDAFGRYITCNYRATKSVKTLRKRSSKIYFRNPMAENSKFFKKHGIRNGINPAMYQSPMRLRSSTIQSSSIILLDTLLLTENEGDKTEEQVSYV
# [12] = biological target: T4, 5-hydroxytryptamine receptor 2C (Homo sapiens, UniProt P28335); assay: Compound was tested for its binding affinity for human cloned 5-hydroxytryptamine 2C receptor in HEK 293 using [3H]mesulergine as a radioligand; format: cell-based, HEK293
# T4 sequence (P28335 whole entry): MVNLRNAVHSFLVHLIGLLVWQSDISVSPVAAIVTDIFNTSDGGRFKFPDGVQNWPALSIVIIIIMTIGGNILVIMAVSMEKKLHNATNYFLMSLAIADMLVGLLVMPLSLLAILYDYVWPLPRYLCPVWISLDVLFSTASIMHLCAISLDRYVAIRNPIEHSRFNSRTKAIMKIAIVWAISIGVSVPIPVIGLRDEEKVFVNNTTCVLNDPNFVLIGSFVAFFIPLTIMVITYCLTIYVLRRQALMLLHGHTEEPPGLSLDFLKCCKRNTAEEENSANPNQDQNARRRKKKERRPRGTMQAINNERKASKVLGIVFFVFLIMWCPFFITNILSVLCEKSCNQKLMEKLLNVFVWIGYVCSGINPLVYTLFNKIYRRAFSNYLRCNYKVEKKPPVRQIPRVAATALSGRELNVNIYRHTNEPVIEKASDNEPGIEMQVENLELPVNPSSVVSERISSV
# [13] = Oral bioavailability in rat; format: ADME, organism-based; settings: in vivo
# [14] = biological target: T5, 5-hydroxytryptamine receptor 1F (Homo sapiens, UniProt P30939); assay: Compound was tested for its binding affinity for human cloned 5-hydroxytryptamine 1F receptor in CHO using [3H]5-HT as a radioligand
# T5 sequence (P30939 whole entry): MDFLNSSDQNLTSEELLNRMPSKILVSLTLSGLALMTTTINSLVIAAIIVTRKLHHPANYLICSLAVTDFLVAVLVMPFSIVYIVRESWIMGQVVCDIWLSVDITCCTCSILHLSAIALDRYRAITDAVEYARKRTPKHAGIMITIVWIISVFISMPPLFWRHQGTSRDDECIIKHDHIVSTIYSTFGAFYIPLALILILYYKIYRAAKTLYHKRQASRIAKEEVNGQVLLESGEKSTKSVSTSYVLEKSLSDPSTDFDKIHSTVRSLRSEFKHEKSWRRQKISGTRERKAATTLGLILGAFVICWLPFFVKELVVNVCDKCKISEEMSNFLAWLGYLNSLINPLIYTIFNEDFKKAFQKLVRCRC
# [15] = biological target: 5-hydroxytryptamine receptor 1E (Homo sapiens, UniProt P28566); assay: Compound was tested for its binding affinity for human cloned 5-hydroxytryptamine 1E receptor in CHO using [3H]5-HT as a radioligand
# Chain of 5-hydroxytryptamine receptor 1E (P28566 whole entry): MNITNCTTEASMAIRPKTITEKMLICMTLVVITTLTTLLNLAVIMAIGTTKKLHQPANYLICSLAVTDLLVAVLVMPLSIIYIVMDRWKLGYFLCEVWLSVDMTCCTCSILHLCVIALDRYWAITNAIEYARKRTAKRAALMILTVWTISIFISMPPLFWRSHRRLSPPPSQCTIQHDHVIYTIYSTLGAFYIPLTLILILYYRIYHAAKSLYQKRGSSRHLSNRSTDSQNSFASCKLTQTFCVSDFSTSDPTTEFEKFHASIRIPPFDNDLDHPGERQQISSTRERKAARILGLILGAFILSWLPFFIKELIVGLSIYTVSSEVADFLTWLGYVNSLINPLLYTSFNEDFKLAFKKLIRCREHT
# [16] = biological target: 5-hydroxytryptamine receptor 5A (Homo sapiens, UniProt P47898); assay: Compound was tested for its binding affinity in 5-hydroxytryptamine 5A receptor (using human cloned receptors in HEK 293 and [3H]5-CTas a radioligand ); format: cell-based, HEK293
# Chain of 5-hydroxytryptamine receptor 5A (P47898 whole entry): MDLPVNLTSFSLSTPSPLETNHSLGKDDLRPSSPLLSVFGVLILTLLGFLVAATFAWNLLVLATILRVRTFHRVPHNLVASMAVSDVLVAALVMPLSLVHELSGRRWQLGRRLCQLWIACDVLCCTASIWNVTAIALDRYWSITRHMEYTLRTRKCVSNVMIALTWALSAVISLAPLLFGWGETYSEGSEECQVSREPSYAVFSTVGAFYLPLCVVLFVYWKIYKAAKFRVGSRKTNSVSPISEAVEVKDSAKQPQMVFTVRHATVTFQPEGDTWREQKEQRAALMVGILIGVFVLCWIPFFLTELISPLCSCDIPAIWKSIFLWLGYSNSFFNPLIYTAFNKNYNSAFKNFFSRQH
# [17] = biological target: 5-hydroxytryptamine receptor 2A (Homo sapiens, UniProt P28223); assay: Compound was tested for its binding affinity for human cloned 5-hydroxytryptamine 2A receptor in HEK 293 using [3H]ketanserin as a radioligand; format: cell-based, HEK293
# Chain of 5-hydroxytryptamine receptor 2A (P28223 whole entry): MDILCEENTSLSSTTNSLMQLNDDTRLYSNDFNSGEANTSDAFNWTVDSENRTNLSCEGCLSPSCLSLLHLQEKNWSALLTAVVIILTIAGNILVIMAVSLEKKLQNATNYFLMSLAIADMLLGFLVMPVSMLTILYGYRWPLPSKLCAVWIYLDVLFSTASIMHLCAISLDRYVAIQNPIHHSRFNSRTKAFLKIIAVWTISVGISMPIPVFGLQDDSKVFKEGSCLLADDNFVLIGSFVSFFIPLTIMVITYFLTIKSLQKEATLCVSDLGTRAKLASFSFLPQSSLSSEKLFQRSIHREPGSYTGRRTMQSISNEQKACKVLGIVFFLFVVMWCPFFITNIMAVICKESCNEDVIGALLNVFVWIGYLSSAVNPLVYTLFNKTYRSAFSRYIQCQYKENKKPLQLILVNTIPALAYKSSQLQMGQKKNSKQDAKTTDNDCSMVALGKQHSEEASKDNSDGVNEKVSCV
# [18] = species on record: Cavia porcellus; assay: Effective dose to antagonise 5-CT induced hypothermia in guinea pig at 2 hours; format: functional
# [19] = biological target: 5-hydroxytryptamine receptor 6 (Homo sapiens, UniProt P50406); assay: Compound was tested for its binding affinity in 5-hydroxytryptamine 6 receptor (using human cloned receptors in HeLa and [3H]LSD as a radioligand )
# Chain of 5-hydroxytryptamine receptor 6 (P50406 whole entry): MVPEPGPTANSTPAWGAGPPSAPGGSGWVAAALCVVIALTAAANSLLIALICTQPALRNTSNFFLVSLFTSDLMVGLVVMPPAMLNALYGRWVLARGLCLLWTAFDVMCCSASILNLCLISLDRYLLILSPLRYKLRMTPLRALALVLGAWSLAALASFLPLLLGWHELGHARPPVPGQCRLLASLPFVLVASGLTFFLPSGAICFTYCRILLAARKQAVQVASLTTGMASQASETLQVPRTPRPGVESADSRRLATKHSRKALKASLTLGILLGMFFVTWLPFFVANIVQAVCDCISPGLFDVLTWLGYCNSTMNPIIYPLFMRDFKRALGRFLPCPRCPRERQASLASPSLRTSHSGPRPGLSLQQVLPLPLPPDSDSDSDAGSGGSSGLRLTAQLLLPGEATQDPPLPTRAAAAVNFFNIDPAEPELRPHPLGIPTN
# [20] = biological target: 5-hydroxytryptamine receptor 1B (Homo sapiens, UniProt P28222); assay: Compound was tested for its binding affinity for human cloned 5-hydroxytryptamine 1B receptor in CHO using [3H]5-HT as a radioligand
# Chain of 5-hydroxytryptamine receptor 1B (P28222 whole entry): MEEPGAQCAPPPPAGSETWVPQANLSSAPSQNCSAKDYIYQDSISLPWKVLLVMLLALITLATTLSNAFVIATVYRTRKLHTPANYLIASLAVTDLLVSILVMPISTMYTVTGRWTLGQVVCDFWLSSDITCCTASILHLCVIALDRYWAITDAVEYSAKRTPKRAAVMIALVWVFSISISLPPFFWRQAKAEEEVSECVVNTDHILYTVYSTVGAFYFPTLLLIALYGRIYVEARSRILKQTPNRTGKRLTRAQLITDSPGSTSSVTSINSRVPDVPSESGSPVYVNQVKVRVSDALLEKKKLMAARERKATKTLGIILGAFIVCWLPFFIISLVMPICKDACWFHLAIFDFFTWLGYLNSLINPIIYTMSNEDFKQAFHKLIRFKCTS
# T1 sequence (P34969 whole entry): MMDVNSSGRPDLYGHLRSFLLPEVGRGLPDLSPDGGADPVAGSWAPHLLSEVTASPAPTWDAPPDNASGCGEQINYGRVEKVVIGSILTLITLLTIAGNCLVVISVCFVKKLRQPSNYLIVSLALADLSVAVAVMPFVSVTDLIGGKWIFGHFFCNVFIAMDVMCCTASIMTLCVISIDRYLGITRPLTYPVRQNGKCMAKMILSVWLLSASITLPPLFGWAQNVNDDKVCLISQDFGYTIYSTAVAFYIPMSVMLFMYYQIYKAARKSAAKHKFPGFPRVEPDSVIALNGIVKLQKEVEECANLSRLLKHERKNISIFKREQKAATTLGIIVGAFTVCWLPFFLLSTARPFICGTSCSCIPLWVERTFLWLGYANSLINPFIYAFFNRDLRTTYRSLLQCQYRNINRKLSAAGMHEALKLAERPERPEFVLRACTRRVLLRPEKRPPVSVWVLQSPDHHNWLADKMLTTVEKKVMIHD
SMILES,Ki [1],Ki [2],also measured
CC1CCN(CC[C@H]2CCCN2S(=O)(=O)c2cccc(O)c2)CC1.Cl,,,clearance [3]: 140 mL/min/kg; Kp [4]: 0.8; ED50 [5]: 3 mg/kg; half-life [6]: < 0.5 h
O=S(=O)(c1ccc2cc[nH]c2c1)N1CCC[C@@H]1CCN1CCC(c2cc3ccccc3[nH]2)CC1,6.31 nM,89.1 nM,
O=S(=O)(c1ccc2cc[nH]c2c1)N1CCC[C@@H]1CCN1CCC(Oc2ccc(Cl)cc2)CC1,,,Ki [7]: 25.1 nM; Ki [8]: 562 nM; Ki [9]: 2 nM; clearance [3]: 57 mL/min/kg; Ki [10]: 1910 nM; Ki [11]: 91.2 nM; Ki [12]: 269 nM; bioavailability [13]: 16%; Kp [4]: 0.9; Ki [14]: > 2000 nM; Ki [15]: > 5010 nM; Ki [16]: 182 nM; Ki [17]: 63.1 nM; half-life [6]: 2 h; ED50 [18]: 2 mg/kg; Ki [19]: 851 nM; Ki [20]: 631 nM
CC1CCN(CC[C@H]2CCCN2S(=O)(=O)c2ccc3cc[nH]c3c2)CC1,2.4 nM,> 10000 nM,
CC1CCN(CC[C@H]2CCCN2S(=O)(=O)c2ccc3c(c2)NCC3)CC1,22.9 nM,,
CC1CCN(CC[C@H]2CCCN2S(=O)(=O)c2ccc3c[nH]nc3c2)CC1,6.46 nM,,
CC1CCN(CC[C@H]2CCCN2S(=O)(=O)c2ccc3[nH]nnc3c2)CC1,25.7 nM,,
CC1CCN(CC[C@H]2CCCN2S(=O)(=O)c2ccc3oc(O)nc3c2)CC1,166 nM,,
CC1CCN(CC[C@H]2CCCN2S(=O)(=O)c2ccc3[nH]c(O)nc3c2)CC1,57.5 nM,,
CC1CCN(CC[C@H]2CCCN2S(=O)(=O)c2ccc3[nH]cnc3c2)CC1,6.46 nM,,

# Second part, led by results:
Ki [1],Ki [2],SMILES,also measured
0.676 nM,1.29 nM,O=S(=O)(c1ccc2cc[nH]c2c1)N1CCC[C@@H]1CCN1CCC(c2c[nH]c3ccccc23)CC1,
0.501 nM,30.2 nM,O=S(=O)(c1ccc2cc[nH]c2c1)N1CCC[C@@H]1CCN1CCC(Oc2ccc(F)cc2)CC1,
0.832 nM,19.1 nM,O=C(c1ccc(F)cc1)C1CCN(CC[C@H]2CCCN2S(=O)(=O)c2ccc3cc[nH]c3c2)CC1,
1.82 nM,309 nM,O=c1oc2ccccc2n1C1CCN(CC[C@H]2CCCN2S(=O)(=O)c2ccc3cc[nH]c3c2)CC1,
0.794 nM,93.3 nM,O=C(c1ccc(Cl)cc1)C1CCN(CC[C@H]2CCCN2S(=O)(=O)c2ccc3cc[nH]c3c2)CC1,
0.708 nM,43.7 nM,O=S(=O)(c1ccc2cc[nH]c2c1)N1CCC[C@@H]1CCN1CCC(n2c(O)nc3ccccc32)CC1,
